This note sets out measurements from ChEMBL document CHEMBL1125960, “Synthesis and biological activity of fluorinated intermediates of the methionine salvage pathway” (Bioorg Med Chem Lett, 1991).

For assay [1], the system named is AIK-T4. In words: (§1) The compound was evaluated for toxicity against HIV infected T4 lymphocytes. The settings on record: Homo sapiens. In kind it is functional, cell-based.
For the next assay, the system named is NCI-H522. The assay is described as follows: The compound was evaluated for its ability to inhibit growth of non small cell lung cancer ([…] cell line). In kind it is functional. The settings on record: Homo sapiens.
The subject of assay [2] is Plasmodium falciparum. The assay is described as follows: Growth inhibition of Plasmodium falciparum FCB125. In kind it is functional, organism-based.
For assay [3], the system named is Plasmodium falciparum. In words: Growth inhibition of chloroquine-resistant Plasmodium falciparum. In kind it is functional, organism-based.
Assay [4] concerns Plasmodium falciparum. In words: Growth inhibition of pyrimethamine-resistant Plasmodium falciparum. In kind it is functional, organism-based.
The subject of assay [5] is AIK-T4. Described as §1. In kind it is functional. The settings on record: Homo sapiens.

On to `NC1=NCN=C2C1N=CN2C1O[C@H](CSC(F)F)[C@@H](O)[C@H]1O` (some centres undefined), for which the IC50 with AIK-T4 [1] turned out to be 222 µM; in the assay with Plasmodium falciparum [2], 35 µM. Further, the GI50 with NCI-H522 stood at 86 µM.
For `NC1=NCN=C2C1N=CN2C1O[C@H](CSCCF)[C@@H](O)[C@H]1O` (some centres undefined), the IC50 in the assay with Plasmodium falciparum [2] was 0.043 µM.
`OC1OC(CSC(F)(F)F)C(O)C1O` (centres undefined): the IC50 was > 100 µM with Plasmodium falciparum [3], > 100 µM with Plasmodium falciparum [2] and 50 µM with Plasmodium falciparum [4].
With `NC1=NCN=C2C1N=CN2C1O[C@H](CSCC(F)(F)F)[C@@H](O)[C@H]1O` (some centres undefined), the IC50 with AIK-T4 [1] stood at 0.245 µM; in the assay with Plasmodium falciparum [2], 0.085 µM. The same compound gave a GI50 with NCI-H522 of 45 µM.
`OC1O[C@H](CSC(F)F)[C@@H](O)[C@H]1O` (some centres undefined): the IC50 in the assay with Plasmodium falciparum [2] is > 100 µM.
Still for that read-out and setting: for `NC1=NCN=C2C1N=CN2C1O[C@H](CSCC(F)F)[C@@H](O)[C@H]1O` (some centres undefined) the value was 0.025 µM.
`NC1=NCN=C2C1N=CN2C1O[C@H](CSC(F)(F)F)[C@@H](O)[C@H]1O` (some centres undefined) came in with a GI50 with AIK-T4 [5] of 0.117 µM. Moreover, in the assay with Plasmodium falciparum [2], half-maximal inhibition (IC50) was put at 0.018 µM.

One may read the IC50 as the concentration that inhibits the measured activity by half. The GI50 is the concentration giving 50% growth inhibition. Low readings indicate more potent growth inhibition, high ones less potent growth inhibition.
